{"source": "patent US8003676B2", "about": "“1,3,4-oxadiazole derivatives as DGAT1 inhibitors” (AstraZeneca AB, priority 2006, dated 2011)", "key": {"[1]": {"tested_on": "ACAT", "test": "ACAT enzyme assay (esterification of cholesterol); selectivity DGAT over ACAT", "type": "biochemical", "conditions": "DGAT vs ACAT enzyme assays", "protocol": "• Mouse adipocyte 3T3 cells were cultured to confluency in 6 well plates in new born calf serum containing media. Differentiation of the cells was induced by incubating in medium containing 10% foetal calf serum, 1 μg/mL insulin, 0.25 μM dexamethasone and 0.5 mM isobutylmethyl xanthine. After 48 h the cells were maintained in medium containing 10% foetal calf serum and 1 μg/mL insulin for a further 4-6 days. For the experiment, the medium was changed to serum-free medium and the cells pre-incubated with compound solubilised in DMSO (final concentration 0.1%) for 30 minutes. De novo lipogenesis was measured by the addition of 0.25 mM sodium acetate plus 1 μCi/mL ^14C-sodium acetate to each well for a further 2 h (J. Biol. Chem., 1976, 251, 6462-6464). […] Incorporation of radiolabel into the triglyceride fraction was analysed using a Radiomatic Flo-one Detector (Packard) connected to the HPLC machine. […] De novo lipogenesis was measured by the addition of 50 μM sodium acetate plus 3 μCi/mL ^14C-sodium acetate to each well for a further 3 h (J. Biol. Chem., 1976, 251, 6462-6464). […] Incorporation of radiolabel into the triglyceride fraction was analysed using a Radiomatic Flo-one Detector (Packard) connected to the HPLC machine. • 3) The ability of compounds to inhibit ACAT can be measured using a modification of the enzyme assay described in Billheimer (1985) Methods in Enzymology, 111, 286-293. […]"}, "[2]": {"biological_target": "T1, human DGAT1 (Homo sapiens, UniProt O75907)", "T1 construct": "made in house; host or cells: Sf9 insect cells (baculovirus), membrane fraction", "T1 sequence (O75907 1-488)": "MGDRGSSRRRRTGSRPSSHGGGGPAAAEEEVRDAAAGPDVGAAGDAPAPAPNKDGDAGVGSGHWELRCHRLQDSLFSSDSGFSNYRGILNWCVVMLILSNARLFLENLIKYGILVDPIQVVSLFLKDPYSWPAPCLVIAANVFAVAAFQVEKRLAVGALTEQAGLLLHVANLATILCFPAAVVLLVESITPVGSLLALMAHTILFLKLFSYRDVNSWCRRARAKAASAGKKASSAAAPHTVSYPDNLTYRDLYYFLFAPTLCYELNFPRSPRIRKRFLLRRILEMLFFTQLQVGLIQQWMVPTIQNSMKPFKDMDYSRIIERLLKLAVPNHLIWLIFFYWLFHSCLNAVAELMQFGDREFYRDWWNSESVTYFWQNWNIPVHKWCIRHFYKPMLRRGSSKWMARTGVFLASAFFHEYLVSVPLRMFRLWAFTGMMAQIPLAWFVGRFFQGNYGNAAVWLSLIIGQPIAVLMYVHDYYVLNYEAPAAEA", "test": "Human Enzyme Assay (DGAT1 inhibition, 14C oleoyl CoA, triolein formation)", "type": "biochemical", "conditions": "human DGAT1 expressed in sf9 insect cell membranes", "protocol": "The in vitro assay to identify DGAT1 inhibitors uses human DGAT1 expressed in insect cell membranes as the enzyme source (Proc. Natl. Acad. Sci. 1998, 95, 13018-13023). Briefly, sf9 cells were infected with recombinant baculovirus containing human DGAT1 coding sequences and harvested after 48 h. Cells were lysed by sonication and membranes isolated by centrifuging at 28000 rpm for 1 h at 4° C. on a 41% sucrose gradient. The membrane fraction at the interphase was collected, washed, and stored in liquid nitrogen.\nDGAT1 activity was assayed by a modification of the method described by Coleman (Methods in Enzymology 1992, 209, 98-102). Compound at 1-10 μM was incubated with 0.4 μg membrane protein, 5 mM MgCl2, and 100 μM1,2 dioleoyl-sn-glycerol in a total assay volume of 200 μl in plastic tubes. The reaction was started by adding ^14C oleoyl coenzyme A (30 μM final concentration) and incubated at room temperature for 30 minutes. The reaction was stopped by adding 1.5 mL 2-propanol:heptane:water (80:20:2). Radioactive triolein product was separated into the organic phase by adding 1 mL heptane and 0.5 mL 0.1 M carbonate buffer pH 9.5. DGAT1 activity was quantified by counting aliquots of the upper heptane layer by liquid scintillography."}}, "data": [{"smiles": "O=C(Nc1ccc(O[C@H]2CC[C@@H](C(=O)O)CC2)cc1F)c1nnc(Nc2cc(F)c(F)cc2F)o1", "note": "[Example 1, cis-4-(3-Fluoro-4-{[5-(2,4,5-trifluoro-phenylamino)-[1,3,4]oxadiazole-2-carbonyl]-amino}-phenoxy)-cyclohexanecarboxylic acid]", "values": [{"measurement": "selectivity to inhibit DGAT over inhibition of ACAT (ratio of IC50 values in the DGAT and ACAT enzyme assays)", "setting": "[1]", "value": 70, "unit": "fold"}, {"measurement": "IC50", "setting": "[2]", "value": 4, "unit": "nM"}]}]}
